Data taken from ChEMBL document CHEMBL3507680, “University of Dundee, Gates Library screen for HepG2 cell viability”.

Assay: Human HepG2 cell viability assay in 384 well format
Format: toxicity, cell-based
Parameters: dose 125 nL, time 70.5 hour; cytotoxicity at 70.5 h: concentration not given beside the values
Conditions: HepG2 cells, read-out: Inhibition

Structure (SMILES) | cytotoxicity at 70.5 h [%]
Cn1cnc(S(=O)(=O)N2CCOCC2)c1Cl | -3.62
CN1CCN(S(=O)(=O)c2ncn(C)c2Cl)CC1 | -5.44
CC(C)N1CCN(S(=O)(=O)c2ncn(C)c2Cl)CC1 | -4.74
O=C1NCCCCC1Sc1nnc(N2CCCC2)n1C1CC1 (stereo unspecified) | 6.7
CC1CCN(CCNC(=O)C2CCN(C(=O)C(C)(C)C)CC2)CC1 | -3.74
CC(=O)N1CCC(C(=O)NCCN2CCCC(C)C2)CC1 (stereo unspecified) | -7.29
COc1ccc(NC(C)C(=O)N2CCCC2)cn1 (stereo unspecified) | -1.03
NC(=O)COc1ccc(CNC(=O)CN2CCc3ccccc32)cc1 | 0.272
CC(=O)NCCNC(=O)Nc1cccc(Cl)c1SC(F)F | -0.195
CC(C#N)CSc1ccccc1NCC(=O)NC(=O)NC(C)(C)C (stereo unspecified) | -2.56
CC(C#N)CSc1ccccc1NCC(=O)NCc1cccs1 (stereo unspecified) | 0.858
CCNC(=O)CNC(=O)Nc1cccc(Cl)c1SC(F)F | 0.0144
NS(=O)(=O)N1CCc2ccc(NC(=O)Cc3ccccc3F)cc21 | 22.4
Cc1nc(C2CCCN(C(=O)c3csc(C)n3)C2)no1 (stereo unspecified) | 4.29
Cc1nc(CC(=O)N2CCOC(c3nc(C(C)(C)C)n[nH]3)C2)cs1 (stereo unspecified) | 20.6
Cc1ccn(-c2ccccc2NCc2cscn2)n1 | 10.6
O=C(Nc1ccnc(OC2CCOC2)c1)c1ccc(F)cc1Cl (stereo unspecified) | 0.257
CN(C)CCN(Cc1ccc(Cl)cc1)C(=O)c1cnccn1 | 3.24
Cc1cc(CNc2ccc(C(F)(F)F)cc2)no1 | -7.03
Cn1cc(CNC2CCOCC2)c(-c2cc3ccccc3o2)n1 | -5.58
CCOc1ccc(C(F)(F)F)cc1NCc1cc(C)on1 | 26.7
Cn1[nH]c(C2CCC2)c(-c2ccc3c(c2)OCO3)c1=N | -3.82

Structure (SMILES) | cytotoxicity at 70.5 h [%]
CCOc1ccc(C(F)(F)F)cc1NCc1nc(C)c(C)o1 | -2.62
O=C(Cn1cnnn1)NCC1(O)CCCc2ccccc21 (stereo unspecified) | -6.92
Cn1cc(C(C)(O)CNC(=O)c2cc(Br)cn2C)cn1 (stereo unspecified) | 7.26
COCCN1CCN(Cc2nnc(-c3occc3C)o2)CC1 | -6.39
Cn1cc(Br)cc1C(=O)NCC(C)(O)c1ccsc1 (stereo unspecified) | -9.72
CC(C)N(CCS(C)(=O)=O)Cc1csc(Cc2ccc(Cl)cc2)n1 | 3.51
CC(C)N(CCS(C)(=O)=O)Cc1csc(-c2ccccc2F)n1 | -13.1
O=C(CN1CCOC(Cn2cncn2)C1)NC(C1CC1)C1CC1 (stereo unspecified) | 9.73
c1ccc(N2CCC(NCCc3ccc(-n4cccn4)cc3)CC2)nc1 | 21.5
CSCC(CCO)NC(=O)c1cccc(F)c1Cl (stereo unspecified) | 24.5
Cn1nc(Br)c2c(NCCNc3ncccn3)ncnc21 | -21.3
Cc1cc(S(C)(=O)=O)c(C)c(S(=O)(=O)N2CCCC(C)C2)c1 (stereo unspecified) | -7.71
Cn1nc2c(cc1=O)CN(CCOc1ccccc1C#N)CC2 | 35
CC(C)n1nc2c(cc1=O)CN(CCOc1ccc(C#N)cc1)CC2 | -12.5
COCC(=O)N1CCN(Cc2cc(F)cc(Br)c2)CC1 | -6.59
CCc1n[nH]c(=O)c(C(=O)N2CCSCC2)c1CC | -9.39
Cc1ccc(C(C)NC(=O)N2CCNC(=O)CC2)cc1F (stereo unspecified) | -17.7
Cc1nccn1-c1ccc(C(C)Nc2cnn(C)c(=O)c2Cl)cc1 (stereo unspecified) | 9.7
CCC(NC(=O)NCc1cccc(N(C)C)n1)c1ccccc1OC (stereo unspecified) | -7.5
CCCC(NC(=O)NCc1cccc(N(C)C)n1)c1ccccn1 (stereo unspecified) | -18.8
COCC(NC(=O)c1cn(-c2cccc(Cl)c2F)nn1)C1CC1 (stereo unspecified) | -0.579
COCC(C)(C#N)NC(=O)c1cn(-c2cccc(Cl)c2F)nn1 (stereo unspecified) | -10.4

Structure (SMILES) | cytotoxicity at 70.5 h [%]
COCCCNC(=O)CN1CCC(c2ccccc2)C1 (stereo unspecified) | -7.32
CSCC(CCO)NC(=O)c1cccc(Cl)c1F (stereo unspecified) | -16.7
COC(=O)CN1CCSC(c2ccccc2)C1 (stereo unspecified) | -13.2
COCCOCC(=O)Nc1cccc(CN(C)C(C)=O)c1 | 27.5
O=C(NCC1CCCO1)c1csc(Cc2ccccc2)n1 (stereo unspecified) | 50.7
COc1ccccc1-c1cc(NC(=O)CC2CCS(=O)(=O)C2)[nH]n1 (stereo unspecified) | -9.57
COCCN1CCN(CC(=O)N(C)Cc2ccsc2)CC1C (stereo unspecified) | -7.6
CS(=O)(=O)CCNCc1ccc(OCc2ccccn2)cc1 | 0.418
C[S+]([O-])CCNCc1ccc(OCc2cscn2)cc1 (stereo unspecified) | 1.77
Cc1ccc(-n2ccnc2)c(C(=O)NCCOCC2CCCO2)c1 (stereo unspecified) | -1.48
CN1CCC(NC(=O)Nc2ccc(F)c(-n3cccc3)c2)C1=O (stereo unspecified) | -12.5
CN1CCC(NC(=O)Nc2ccc(Br)c(F)c2)C1=O (stereo unspecified) | 1.65
CC(C)n1cc2cc(NC(=O)CCS(C)(=O)=O)ccc2n1 | 23.6
O=C1N(CC2CC2)C2(CCSCC2)NC12CCCC2 | 30.4
O=C(c1cccc2cc[nH]c12)N1CCC2(CCOC2)C1 (stereo unspecified) | 1.91
CC(=O)Nc1ccc2nn(C(C)C)cc2c1 | -8.47
CN(C)c1nccc(CNS(=O)(=O)c2ccc(F)c(Cl)c2)n1 | -5.5
Cc1cc(F)c(S(=O)(=O)NCc2ccnc(N(C)C)n2)cc1F | 29.1
COCCN1CCN(CC(=O)N(C)Cc2cccc(F)c2)CC1C (stereo unspecified) | 0.133
O=C(c1cccc2[nH]ccc12)N1CCC2(CCOC2)C1 (stereo unspecified) | 2.34
COCCN1CCN(CC(=O)N(C)Cc2ccsc2)CC1 | -6.03
C1CCC(NCCN2CCOCC2)C1 | 16.9

Structure (SMILES) | cytotoxicity at 70.5 h [%]
CCN(CC)C(=O)N1CCN(C2=NCC(C)S2)CC1 (stereo unspecified) | -9.33
COCCOc1ccccc1CNCC1COC2(CCCC2)O1 (stereo unspecified) | 0.252
O=C(COCC1CC1)Nc1cc(-c2ccc(Br)s2)n[nH]1 | -5.77
Cc1cc(C(=O)NCCN2CCCCC2)nn1C(C)(C)C | -18
CC(NC(=O)NCc1cccnc1N(C)C)c1ccc(F)cc1 (stereo unspecified) | -23.2
O=C(NCc1cccnc1N1CCCCC1)c1ccc2[nH]nnc2c1 | 41.6
CC(=O)NCC1CCCN(C(=O)Cc2c(C)noc2C)C1 (stereo unspecified) | -22.9
Cc1noc(C)c1CC(=O)N1CCCC(n2ccnc2C)C1 (stereo unspecified) | -15.6
CN(CCc1ccncc1)c1cnn(C)c(=O)c1Br | -24.9
CN(C)c1cc2c(nn1)CCN(C(=O)c1ccc(-n3cccn3)nc1)C2 | -25.2
CNc1cc2c(nn1)CCN(C(=O)c1ccc(-n3cccn3)nc1)C2 | -14.4
CC(CNC(=O)c1cnc[nH]1)Oc1ccc(Cl)cc1 (stereo unspecified) | -22.4
CN(CCNC(=O)Nc1nccs1)Cc1ccc(F)cc1 | -13.1
NC(=O)c1cc(C2CCCN(CCc3ccc4c(c3)CCO4)C2)n[nH]1 (stereo unspecified) | -19
Cc1nc(COc2ccc(N(C)S(C)(=O)=O)cc2)sc1C | 48
Cc1ncsc1C(=O)OCCN1CCCc2ccccc21 | -22.3
Cc1nnc(-c2cccc(C#N)c2)n1C1CCCN(C(C)C)C1=O (stereo unspecified) | -9.5
CN(Cc1cnccn1)c1cncc(Br)c1 | -22
Cc1cc(Cl)c(C)c(S(=O)(=O)N2CCN(Cc3ccccn3)CC2)c1Cl | 40.2
Cc1cc(C(=O)NCCN2CCC(C)CC2)nn1C(C)(C)C | -15.3
